One test relates to E. coli UFR18. Kind of test: MIC of ceftazidime alone and in combination with compounds (synergy), broth microdilution. Type of test: cell-based. As to conditions: MIC of ceftazidime with compound fixed at 4 μg/mL; strain UFR18 (CTX-M-15, OXA-204).
A further test concerns K. pneumoniae UFR24. Type of test: cell-based. As to conditions: MIC of ceftazidime with compound fixed at 4 μg/mL; strain UFR24 (TEM-1, SHV-2, SHV-11, OXA-1, OXA-48, OXA-47).
For the next test, the target named is T1, KPC-2 (Klebsiella pneumoniae, UniProt Q9F663).
T1 construct: made in house; host or cells: E. coli expression vector
Put plainly: β-lactamase inhibitory activity, IC50 (nitrocefin hydrolysis). Type of test: biochemical. On the procedure:
(§1) Method 1: β-lactamase Inhibitory Activity, Determination of IC50 (Table 1)
(§2) Enzyme activity was monitored by spectrophotometric measurement of nitrocefin (NCF—TOKU-E, N005) hydrolysis at 485 nm, at room temperature and in assay buffer A: 100 mM Phosphate pH7, 2% glycerol and 0.1 mg/mL Bovine serum albumin (Sigma, B4287). Enzymes were cloned in E. coli expression vector, expressed and purified in house using classical procedures. To a transparent polystyrene plate (Corning, 3628) were added in each well 5 μL DMSO or inhibitor dilutions in DMSO and 80 μL enzyme in buffer A. Plates were immediately read at 485 nm in a microplate spectrophotometer (BioTek, PowerWave HT) to enable background subtraction. After 30 min of pre-incubation at room temperature, 15 μL of NCF (200 μM final) were finally added in each well. Final enzyme concentrations were 0.1 nM (TEM-1), 0.075 nM (SHV-1), 0.4 nM (CTX-M-15), 1 nM (KPC-2), 0.2 nM (P99 AmpC), 0.2 nM (CMY-37), 0.4 nM (AmpC P. aeruginosa), 0.2 nM (OXA-1), 1.2 nM (OXA-11), 0.4 nM (OXA-15) and 0.3 nM (OXA-48). After 20 min incubation at room temperature, plates were once again read at 485 nm. Enzyme activity was obtained by subtracting the final signal by the background, and was converted to enzyme inhibition using non inhibited wells. IC50 curves were fitted to a classical Langmuir equilibrium model with Hill slope using XLFIT (IDBS).

The next test concerns the target T2, SHV-1 (Klebsiella pneumoniae, UniProt P0AD64).
T2 construct: made in house; host or cells: E. coli expression vector
The description is as above. Type of test: biochemical. On the procedure:
as §1, §2

A further test concerns the target T3, CTX-M-15 (Escherichia coli, UniProt Q9EXV5).
T3 construct: made in house; host or cells: E. coli expression vector
The description is as above. Type of test: biochemical. The protocol:
as §1, §2

Another test addresses T4, OXA-11 (Pseudomonas aeruginosa, UniProt Q06778).
T4 construct: made in house; host or cells: E. coli expression vector
The description is as above. Type of test: biochemical. The protocol:
as §1, §2

The next test concerns the target T5, OXA-1 (Escherichia coli, UniProt P13661).
T5 construct: made in house; host or cells: E. coli expression vector
The description is as above. Type of test: biochemical. On the procedure:
as §1, §2

Another test addresses T6, OXA-48 (Klebsiella pneumoniae, UniProt Q6XEC0).
T6 construct: made in house; host or cells: E. coli expression vector
Described as above. Type of test: biochemical. On the procedure: as §1, §2

In a further test the target is T7, TEM-1 (Escherichia coli, UniProt P62593).
T7 construct: made in house; host or cells: E. coli expression vector
The description is as above. Type of test: biochemical. As to conditions: class (A); 30 min pre-incubation; NCF 200 μM. The protocol:
as §1, §2

The test system of test [1] is E. cloacae P99. Kind of test: MIC of ceftazidime alone and in combination with compounds (synergy), broth microdilution. Type of test: cell-based. Conditions: MIC of ceftazidime with compound fixed at 4 μg/mL; strain P99 (AmpC).
Another test relates to E. coli UFR61O. Described as above. Type of test: cell-based. Conditions: MIC of ceftazidime with compound fixed at 4 μg/mL; strain UFR61O (TEM-1, KPC-2).
The test system of a further test is E. coli RGN238. Put plainly: MIC of compounds alone, broth microdilution. Type of test: cell-based. As to conditions: Escherichia coli, RGN238, read-out: MIC compounds of the invention alone. On the procedure:
(§3) Compounds of the present invention were assessed against genotyped bacterial strains alone or in combination with the β-lactam ceftazidime (CAZ). […] Briefly, compounds alone according to the invention were prepared in DMSO and spotted (2 μL each) on sterile polystyrene plates (Corning, 3788). […] Log phase bacterial suspensions were adjusted to a final density of 5×10^5 cfu/mL in cation-adjusted Mueller-Hinton broth (Becton-Dickinson) and added to each well (98 μL). Microplates were incubated for 16-20 h at 35° C. in ambient air. The MIC of the compounds was defined as the lowest concentration of said compounds that prevented bacterial growth as read by visual inspection.

Test [2] deals with E. cloacae P99. Put plainly: MIC of compounds alone, broth microdilution. Type of test: cell-based. As to conditions: Enterobacter cloacae; strain P99 (AmpC); read-out: MIC compounds of the invention alone. The protocol:
as §3

In the next test the test system is P. aeruginosa CIP107051. Put plainly: MIC of compounds alone, broth microdilution. Type of test: cell-based. As to conditions: Pseudomonas aeruginosa; strain CIP107051 (TEM-24); read-out: MIC compounds of the invention alone. On the procedure: as §3
Another test has as its system E. coli 190317. Kind of test: MIC of compounds alone, broth microdilution. Type of test: cell-based. Conditions: Escherichia coli; strain 190317 (TEM-1, SHV-12, CTX-M-15, OXA-1); read-out: MIC compounds of the invention alone. On the procedure:
as §3

In the next test the test system is E. coli UFR74. Kind of test: MIC of ceftazidime alone and in combination with compounds (synergy), broth microdilution. Type of test: cell-based. As to conditions: MIC of ceftazidime with compound fixed at 4 μg/mL; strain UFR74 (SHV-1, DHA-1). A digest of the protocol: (§4)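 Synergy with ceftazidime and activity alone are measured by microdilution in cation-adjusted Mueller-Hinton broth. Inoculum is 5×10^5 cfu/mL; incubation 16-20 h at 35° C.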

A further test concerns K. pneumoniae UFR77. Described as above. Type of test: cell-based. As to conditions: MIC of ceftazidime with compound fixed at 4 μg/mL; strain UFR77 (CMY-2). The method in brief: as §4
The next test deals with K. pneumoniae 6299. Described as above. Type of test: cell-based. As to conditions: MIC of ceftazidime with compound fixed at 4 μg/mL; strain 6299 (TEM-1, SHV-11, OXA-163). A digest of the protocol:
as §4

The next test deals with E. coli 131119. Described as above. Type of test: cell-based. Conditions: MIC of ceftazidime with compound fixed at 4 μg/mL; strain 131119 (TEM-1, OXA-48). The method in brief:
as §4

The subject of the next test is E. cloacae UFR38. The description is as above. Type of test: cell-based. As to conditions: MIC of ceftazidime with compound fixed at 4 μg/mL; strain UFR38 (CTX-M-15, NDM-1).
Another test relates to P. aeruginosa UFR93. Described as above. Type of test: cell-based. Conditions: MIC of ceftazidime with compound fixed at 4 μg/mL; strain UFR93 (derepressed AmpC, OprD−, MexAB+, MexXY+).
The next test deals with P. aeruginosa UFR47. The description is as above. Type of test: cell-based. As to conditions: MIC of ceftazidime with compound fixed at 4 μg/mL; strain UFR47 (VIM-1).

pIC50: −log10 of the molar value. Structures can show the parent of a compound that is named as a salt.

The values below come from patent publication US10570131B2, “Heterocyclic compounds and their use in preventing or treating bacterial infections” (MUTABILIS, priority 2015, dated 2020).

T7 sequence (P62593 24-286 limits assumed): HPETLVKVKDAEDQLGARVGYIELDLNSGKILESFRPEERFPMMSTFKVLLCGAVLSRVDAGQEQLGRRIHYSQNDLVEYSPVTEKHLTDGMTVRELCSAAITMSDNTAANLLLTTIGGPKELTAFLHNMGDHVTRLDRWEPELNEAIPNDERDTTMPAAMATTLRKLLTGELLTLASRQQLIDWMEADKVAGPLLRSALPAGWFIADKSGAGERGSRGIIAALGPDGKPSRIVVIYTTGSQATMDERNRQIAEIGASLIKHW
T2 sequence (P0AD64 22-286): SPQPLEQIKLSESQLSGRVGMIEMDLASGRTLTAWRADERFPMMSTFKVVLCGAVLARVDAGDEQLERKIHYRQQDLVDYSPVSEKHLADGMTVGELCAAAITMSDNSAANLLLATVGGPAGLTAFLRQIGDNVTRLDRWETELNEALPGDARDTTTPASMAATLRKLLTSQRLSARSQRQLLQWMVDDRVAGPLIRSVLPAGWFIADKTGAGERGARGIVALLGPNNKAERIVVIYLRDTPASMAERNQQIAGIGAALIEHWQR
T5 sequence (P13661 26-276): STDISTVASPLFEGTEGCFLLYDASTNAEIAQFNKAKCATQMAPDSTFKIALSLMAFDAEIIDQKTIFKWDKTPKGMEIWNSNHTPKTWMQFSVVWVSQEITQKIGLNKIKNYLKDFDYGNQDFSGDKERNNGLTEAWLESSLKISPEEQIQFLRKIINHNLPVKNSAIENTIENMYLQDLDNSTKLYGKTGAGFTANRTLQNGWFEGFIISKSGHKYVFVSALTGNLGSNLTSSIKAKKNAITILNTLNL
T1 sequence (Q9F663 25-293 limits assumed): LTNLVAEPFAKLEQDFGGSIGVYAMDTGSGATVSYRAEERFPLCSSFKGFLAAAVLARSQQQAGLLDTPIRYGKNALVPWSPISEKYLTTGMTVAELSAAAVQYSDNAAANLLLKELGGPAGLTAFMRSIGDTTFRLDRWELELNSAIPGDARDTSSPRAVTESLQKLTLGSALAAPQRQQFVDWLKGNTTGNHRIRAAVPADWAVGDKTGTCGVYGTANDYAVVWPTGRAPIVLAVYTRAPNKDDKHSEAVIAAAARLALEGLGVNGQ
T4 sequence (Q06778 21-266): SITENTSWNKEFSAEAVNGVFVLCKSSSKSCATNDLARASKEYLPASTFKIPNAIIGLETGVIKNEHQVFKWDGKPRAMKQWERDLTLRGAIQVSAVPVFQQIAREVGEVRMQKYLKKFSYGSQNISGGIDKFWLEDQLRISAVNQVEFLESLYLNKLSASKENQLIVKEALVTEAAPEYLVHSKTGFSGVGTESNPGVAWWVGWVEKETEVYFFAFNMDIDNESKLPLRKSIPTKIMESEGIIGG
T6 sequence (Q6XEC0 23-265 limits assumed): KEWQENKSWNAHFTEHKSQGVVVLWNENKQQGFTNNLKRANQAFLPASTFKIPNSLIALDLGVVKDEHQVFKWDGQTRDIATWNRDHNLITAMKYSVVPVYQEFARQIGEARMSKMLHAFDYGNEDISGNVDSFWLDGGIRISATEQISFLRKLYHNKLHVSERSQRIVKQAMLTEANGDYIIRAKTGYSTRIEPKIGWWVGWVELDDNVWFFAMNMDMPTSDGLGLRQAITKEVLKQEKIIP
T3 sequence (Q9EXV5 entry or part of it): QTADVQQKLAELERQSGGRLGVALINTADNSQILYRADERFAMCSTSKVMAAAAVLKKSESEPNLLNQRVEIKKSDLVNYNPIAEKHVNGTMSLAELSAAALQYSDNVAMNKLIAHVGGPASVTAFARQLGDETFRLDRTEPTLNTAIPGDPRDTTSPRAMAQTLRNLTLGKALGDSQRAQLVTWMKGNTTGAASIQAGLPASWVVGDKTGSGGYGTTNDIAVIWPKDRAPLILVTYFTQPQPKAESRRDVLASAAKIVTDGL

As to `CNC(=O)CON=C1C[C@@H](C(N)=O)N2C[C@@H]1N(OS(=O)(=O)[O-])C2=O.[Na+]` (mixture of isomers) [Example 2, sodium [(2S,5S)-2-carbamoyl-4-[2-(methylamino)-2-oxo-ethoxy]imino-7-oxo-1,6-diazabicyclo[3.2.1]octan-6-yl] sulfate], the “MIC, combination of CAZ and compounds of the invention at 4 μg/mL” value (“MIC, combination” below) in the test on E. coli UFR18 turned out to be 1 µg/mL; with K. pneumoniae UFR24, 2 µg/mL; in the test on E. cloacae P99 [1], 4 µg/mL; in the test with E. coli UFR61O, 0.5 µg/mL; with E. coli UFR74, 0.5 µg/mL; in the test on K. pneumoniae UFR77 it was 32 µg/mL. Also, the “MIC, combination” value in the test on K. pneumoniae 6299 was 2 µg/mL; in the test on E. coli 131119 it was not above 0.25 µg/mL. In addition, the negative-log IC50 (pIC50) at KPC-2 was 8.41; against SHV-1, 9.13; against CTX-M-15 it was 9.12; against OXA-11 it was 8.17; on OXA-1, 8.21; at OXA-48, 8.46. This molecule also had a pIC50 at TEM-1 of 8.77. In addition, the MIC in the test with E. coli RGN238 is more than 32 µg/mL; in the test with E. cloacae P99 [2] it was more than 32 µg/mL; in the test with P. aeruginosa CIP107051 it was more than 32 µg/mL; with E. coli 190317, 4 µg/mL.
In the case of `NC[C@@H]1CC(=NOCC(N)=O)[C@@H]2CN1C(=O)N2OS(=O)(=O)O` (mixture of isomers) [Example 5, sodium and 2,2,2-trifluroacetate [(2S,5S)-4-(2-amino-2-oxo-ethoxy)imino-2-(azaniumylmethyl)-7-oxo-1,6-diazabicyclo[3.2.1]octan-6-yl] sulfate], the “MIC, combination” value was less than 0.25 µg/mL with E. coli UFR18; 1 µg/mL in the test with K. pneumoniae UFR24; less than 0.25 µg/mL with E. cloacae P99 [1]; less than 0.25 µg/mL with E. cloacae UFR38; less than 0.25 µg/mL in the test with P. aeruginosa UFR93; less than 0.25 µg/mL in the test with E. coli UFR61O. Further, the “MIC, combination” value in the test with E. coli UFR74 is 1 µg/mL; in the test on K. pneumoniae UFR77, 2 µg/mL; in the test on K. pneumoniae 6299, 0.25 µg/mL; with E. coli 131119, less than 0.25 µg/mL; in the test on P. aeruginosa UFR47, less than 0.25 µg/mL. Further, the pIC50 against KPC-2 was 5.74; on SHV-1, 7.19; against CTX-M-15, 6.89; on OXA-11 it was 6.37; against OXA-1, 6.43; at OXA-48, 6.74. On TEM-1, this molecule had a pIC50 of 6.96. For the same molecule, the MIC with E. coli RGN238 is more than 32 µg/mL; in the test on E. cloacae P99 [2] it was 0.063 µg/mL; in the test on P. aeruginosa CIP107051 it was 4 µg/mL; in the test with E. coli 190317, 0.25 µg/mL.
Consider `NC[C@@H]1CC(=O)[C@@H]2CN1C(=O)N2OS(=O)(=O)O` [Example 6, 2,2,2-trifluroacetate and sodium [(2S,5S)-2-(azaniumylmethyl)-4,7-dioxo-1,6-diazabicyclo[3.2.1]octan-6-yl] sulfate], for which the “MIC, combination” value was not above 0.25 µg/mL in the test with E. coli UFR18; 4 µg/mL with K. pneumoniae UFR24; less than 0.25 µg/mL in the test on E. cloacae P99 [1]; less than 0.25 µg/mL in the test with E. cloacae UFR38; 0.5 µg/mL in the test with P. aeruginosa UFR93; 1 µg/mL with E. coli UFR61O. The “MIC, combination” value with E. coli UFR74 was 0.5 µg/mL; in the test with K. pneumoniae UFR77, 2 µg/mL; in the test on K. pneumoniae 6299 it was 2 µg/mL; in the test on E. coli 131119, not above 0.25 µg/mL; with P. aeruginosa UFR47, not above 0.25 µg/mL. Besides, the pIC50 was 5.29 on KPC-2; 6.47 on SHV-1; 6.29 at CTX-M-15; 5.80 against OXA-11; 5.92 against OXA-1; 6.08 at OXA-48. This molecule also showed a pIC50 on TEM-1 of 6.55. For the same molecule, the MIC with E. coli RGN238 was more than 32 µg/mL; in the test on E. cloacae P99 [2], 1 µg/mL; with P. aeruginosa CIP107051, 8 µg/mL; with E. coli 190317, 1 µg/mL.
